Consider one molecule from patent publication US11655239B2 (SHANGHAI INSTITUTE OF MATERIAL MEDICA, CHINESE ACADEMY OF …, priority 2019, dated 2023).

What all share (type): biochemical
For assay [1], the target named is ErbB2 (Homo sapiens (Human), UniProt P04626). The assay can be described thus: Enzyme selectivity test (ELISA), ErbB2. Here is the method: (§1) 1) Enzyme reaction substrate Poly(Glu, Tyr) 4:1 was diluted to 20 μg/mL with potassium-free PBS (10 mM sodium phosphate buffer, 150 mM NaCl, pH 7.2-7.4), and the microtiter plate was coated with 125 μL/well and placed at 37° C. for 12-16 hours of reaction. The liquid in the well was discard. The plate was washed three times with T-PBS (potassium-free PBS containing 0.1% Tween-20, 200 μL/well), 5 minutes each time. The ELISA plate was dried in an oven at 37° C. for 1 to 2 hours.
(§2) 2) Reaction buffer (50 mM HEPES pH 7.4, 50 mM MgCl2, 0.5 mM MnCl2, 0.2 mM Na3VO4, 1 mM DTT) diluted ATP solution (49 μL) was added to each well, 1 μL of the compound to be tested was added to each well, and then 50 μL of DDR2 kinase domain recombinant protein diluted in the reaction buffer was added to start the reaction. Two control wells without ATP were set in each experiment. The plate placed on a shaker (100 rpm) at 37° C. for 1 hour of reaction. The liquid in the well was discarded and the plate was washed three times with T-PBS.
(§3) 3) Antibody PY99 dilution solution (the antibody was diluted 1:500 with T-PBS containing BSA 5 mg/mL) was added at 100 μL/well, and shaken on a shaker at 37° C. for 0.5 hour of reaction. The liquid in the well was discarded and the plate was washed three times with T-PBS.
(§4) 4) Horseradish peroxidase labeled goat anti-murine secondary antibody dilution solution (the antibody is diluted 1:2000 with T-PBS containing BSA 5 mg/ml) was added at 100 μL/well, and shaken on a shaker at 37° C. for 0.5 hour of reaction. The liquid in the well was discarded and the plate was washed three times with T-PBS.
(§5) 5) 2 mg/ml of OPD color developing solution [diluted with 0.1 M citric acid-sodium citrate buffer (pH=5.4) containing 0.03% H2O2] was added at 100 μL/well and reacted for 1 to 10 minutes at 25° C. in the dark.
(§6) 6) 2M H2SO4 was added at 50 μL/well to stop the reaction, and a tunable wavelength microplate reader VERSAmax was used for reading at a wavelength of 490 nm.
(§7) The IC50 value was obtained by four-parameter regression using the software that came with the microplate reader. […]
A general note: ELISA stands for enzyme-linked immunosorbent assay.

In assay [2] the target is FGFR-2 (Homo sapiens (Human), UniProt P21802). The assay can be described thus: Enzyme selectivity test (ELISA), FGFR-2. Here is the method: as §1
(§8) 2) Reaction buffer (50 mM HEPES pH 7.4, 50 mM MgCl2, 0.5 mM MnCl2, 0.2 mM Na3VO4, 1 mM DTT) diluted ATP solution (49 μL) was added to each well, 1 μL of the compound to be tested was added to each well, and then 50 μL of DDR2 kinase domain recombinant protein diluted in the reaction buffer was added to start the reaction. Two control wells without ATP were set in each experiment. The plate placed on a shaker (100 rpm) at 37° C. for 1 hour of reaction. The liquid in the well was discarded and the plate was washed three times with T-PBS. […]
as §6, §7

The target in assay [3] is ErbB4 (Homo sapiens (Human), UniProt Q15303). The assay can be described thus: Enzyme selectivity test (ELISA), ErbB4. Here is the method:
as §1, §2, §3, §4, §5, §6, §7

Assay [4] concerns the target KDR (Homo sapiens (Human), UniProt P35968). Description: Enzyme selectivity test (ELISA), KDR. Here is the method: as §1, §2, §3, §4, §5, §6, §7
The target in assay [5] is RET (Homo sapiens (Human), UniProt P07949). The assay can be described thus: Enzyme selectivity test (ELISA), RET. Here is the method:
as §1, §2, §3, §4, §5, §6, §7

Assay [6] concerns the target Src (Homo sapiens (Human), UniProt P12931). Description: Enzyme selectivity test (ELISA), Src. Here is the method: as §1, §2, §3, §4, §5, §6, §7
Assay [7] deals with FGFR-1 (Homo sapiens (Human), UniProt P11362). The assay can be described thus: Enzyme selectivity test (ELISA), FGFR-1. Here is the method:
as §1, §2, §3, §4, §5, §6, §7

The target in assay [8] is Met (Homo sapiens (Human), UniProt P08581). The assay can be described thus: Enzyme selectivity test (ELISA), Met. Here is the method: as §1, §2, §3, §4, §5, §6, §7
Assay [9] addresses VEGFR-1 (Homo sapiens (Human), UniProt P17948). Description: Enzyme selectivity test (ELISA), VEGFR-1. Here is the method: as §1, §2, §3, §4, §5, §6, §7
Assay [10] has as its target C-Kit (Homo sapiens (Human), UniProt P10721). Description: Enzyme selectivity test (ELISA), C-Kit. Here is the method:
as §1, §2, §3, §4, §5, §6, §7

Assay [11] addresses Flt-3 (Homo sapiens (Human), UniProt P36888). The assay can be described thus: Enzyme selectivity test (ELISA), Flt-3. Here is the method: as §1, §2, §3, §4, §5, §6, §7
Assay [12] addresses PDGFR-α (Homo sapiens (Human), UniProt P16234). Description: Enzyme selectivity test (ELISA), PDGFR-α. Here is the method:
as §1, §2, §3, §4, §5, §6, §7

Assay [13] addresses AXL (Homo sapiens (Human), UniProt P30530). The assay can be described thus: Enzyme selectivity test (ELISA), AXL. Here is the method: as §1, §2, §3, §4, §5, §6, §7
Assay [14] addresses FGFR-4 (Homo sapiens (Human), UniProt P22455). Description: Enzyme selectivity test (ELISA), FGFR-4. Here is the method:
as §1, §8, §6, §7

Assay [15] deals with P38 MAPK. The assay can be described thus: Enzyme selectivity test (ELISA), P38 MAPK. Here is the method: as §1, §8, §6, §7
Assay [16] deals with EGFR (Homo sapiens (Human), UniProt P00533). The assay can be described thus: Enzyme selectivity test (ELISA), EGFR. Here is the method: as §1, §2, §3, §4, §5, §6, §7
The target in assay [17] is Abl (Homo sapiens (Human), UniProt P00519). The assay can be described thus: Enzyme selectivity test (ELISA), Abl. Here is the method: as §1, §2, §3, §4, §5, §6, §7
Chain of Abl (P00519 whole entry, species assumed): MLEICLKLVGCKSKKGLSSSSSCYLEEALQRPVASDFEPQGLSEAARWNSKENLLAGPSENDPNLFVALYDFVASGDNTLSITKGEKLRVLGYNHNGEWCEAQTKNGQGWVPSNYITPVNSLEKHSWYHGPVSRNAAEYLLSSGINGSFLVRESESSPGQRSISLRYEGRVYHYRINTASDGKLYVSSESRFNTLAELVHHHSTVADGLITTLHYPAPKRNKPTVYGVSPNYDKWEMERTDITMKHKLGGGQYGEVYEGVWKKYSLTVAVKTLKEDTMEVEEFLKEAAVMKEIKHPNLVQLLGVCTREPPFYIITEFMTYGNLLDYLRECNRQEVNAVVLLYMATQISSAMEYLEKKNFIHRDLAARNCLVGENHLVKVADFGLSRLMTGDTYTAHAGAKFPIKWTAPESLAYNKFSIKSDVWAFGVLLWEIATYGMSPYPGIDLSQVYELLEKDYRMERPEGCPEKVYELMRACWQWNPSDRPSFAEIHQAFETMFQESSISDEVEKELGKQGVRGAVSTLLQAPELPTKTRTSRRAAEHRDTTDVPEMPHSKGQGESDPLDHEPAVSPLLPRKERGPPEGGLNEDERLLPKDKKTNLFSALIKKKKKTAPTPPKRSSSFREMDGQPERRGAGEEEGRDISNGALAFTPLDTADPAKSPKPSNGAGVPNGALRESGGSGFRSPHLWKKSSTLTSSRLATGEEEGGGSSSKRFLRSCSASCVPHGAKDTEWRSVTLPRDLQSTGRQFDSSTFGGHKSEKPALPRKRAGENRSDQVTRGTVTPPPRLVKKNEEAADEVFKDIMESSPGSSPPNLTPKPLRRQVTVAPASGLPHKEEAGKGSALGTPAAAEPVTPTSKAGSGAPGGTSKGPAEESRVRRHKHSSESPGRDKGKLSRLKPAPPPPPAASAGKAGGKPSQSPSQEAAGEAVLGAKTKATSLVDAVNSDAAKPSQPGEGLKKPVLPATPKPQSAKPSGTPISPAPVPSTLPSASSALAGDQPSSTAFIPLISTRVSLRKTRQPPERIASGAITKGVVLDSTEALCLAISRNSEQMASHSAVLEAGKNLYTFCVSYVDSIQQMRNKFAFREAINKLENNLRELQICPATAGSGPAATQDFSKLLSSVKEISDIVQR
For assay [18], the target named is FGFR-3 (Homo sapiens (Human), UniProt P22607). The assay can be described thus: Enzyme selectivity test (ELISA), FGFR-3. Here is the method: as §1, §8, §6, §7
Assay [19] concerns the target EPH-A2 (Homo sapiens (Human), UniProt P29317). Description: Enzyme selectivity test (ELISA), EPH-A2. Here is the method: as §1, §2, §3, §4, §5, §6, §7
Assay [20] has as its target IGF-1R (Homo sapiens (Human), UniProt P08069). The assay can be described thus: Enzyme selectivity test (ELISA), IGF-1R. Here is the method:
as §1, §2, §3, §4, §5, §6, §7

Assay [21] deals with DDR2 (Homo sapiens (Human), UniProt Q16832). The assay can be described thus: DDR2 enzyme activity test (ELISA). The following applies: read-out: DDR2 IC50. Here is the method: The optical rotation and the inhibitory activity against DDR2 enzyme of the compounds S11-A and S11-B obtained by the resolution in Example 12, and the chirally synthesized compounds S11-A′ and S11-B′ in Example 13 were tested (referred to the operation in Effect example 1), and the results are shown in Table 3 below:
Detection method: Enzyme-linked immunosorbent assay (ELISA)
Test receptor tyrosine kinase: DDR2
The kinase used in the experiment was obtained by our laboratory using the insect baculovirus expression system to express and purify the recombinant protein containing the protein kinase region; polyglutamic acid-tyrosine peptide segment [Poly(Glu, Tyr) 4:1] and sodium vanadate were purchased from Sigma; the anti-phosphorylated monoclonal antibody PY99 was purchased from Santa Cruz; horseradish peroxidase labeled goat anti-murine secondary antibody was purchased from Calbiochem; ATP and OPD were purchased from Sangon Biotech (Shanghai) Co., Ltd.; the remaining reagents were purchased from Sinopharm Chemical Reagent Co., Ltd. The reaction ELISA plate (#2592) was purchased from Corning. The full-wavelength microplate reader for experiment reading was a product of Molecular Device, model: SpectraMax 190; the experimental water was distilled water produced by Sinopharm Group.
The compound was centrifuged at 12,000 g for 5 min, and DMSO was added to prepare a 10^-2M stock solution, which was vortexed evenly, then sonicated for 10 min and stored at −40° C. for later use. During the test, the compound was diluted with DMSO from the stock solution to 100 times the test concentration (the DMSO concentration in the system was 1%).
as §1, §2, §3, §4, §5, §6
The IC50 value was obtained by four-parameter regression using the software that came with the microplate reader.

Assay [22] has as its target ALK (Homo sapiens (Human), UniProt Q9UM73). The assay can be described thus: Enzyme selectivity test (ELISA), ALK. Here is the method:
as §1, §2, §3, §4, §5, §6, §7

Assay [23] has as its system kinases. The assay can be described thus: Enzyme selectivity test, kinase panel overall. The conditions noted are these: kinase panel of Table 5. The source says: Except that the enzyme was different, other test methods and conditions were the same as the DDR2 enzyme activity test method in Effect example 1.
Assay [24] deals with PDGFR-β (Homo sapiens (Human), UniProt P09619). Description: Enzyme selectivity test (ELISA), PDGFR-β. Here is the method: as §1, §2, §3, §4, §5, §6, §7

Usually IC50 stands for the midpoint of a concentration-inhibition curve.

Structures are written as SMILES.

Chain of FGFR-4 (P22455 22-802, species assumed): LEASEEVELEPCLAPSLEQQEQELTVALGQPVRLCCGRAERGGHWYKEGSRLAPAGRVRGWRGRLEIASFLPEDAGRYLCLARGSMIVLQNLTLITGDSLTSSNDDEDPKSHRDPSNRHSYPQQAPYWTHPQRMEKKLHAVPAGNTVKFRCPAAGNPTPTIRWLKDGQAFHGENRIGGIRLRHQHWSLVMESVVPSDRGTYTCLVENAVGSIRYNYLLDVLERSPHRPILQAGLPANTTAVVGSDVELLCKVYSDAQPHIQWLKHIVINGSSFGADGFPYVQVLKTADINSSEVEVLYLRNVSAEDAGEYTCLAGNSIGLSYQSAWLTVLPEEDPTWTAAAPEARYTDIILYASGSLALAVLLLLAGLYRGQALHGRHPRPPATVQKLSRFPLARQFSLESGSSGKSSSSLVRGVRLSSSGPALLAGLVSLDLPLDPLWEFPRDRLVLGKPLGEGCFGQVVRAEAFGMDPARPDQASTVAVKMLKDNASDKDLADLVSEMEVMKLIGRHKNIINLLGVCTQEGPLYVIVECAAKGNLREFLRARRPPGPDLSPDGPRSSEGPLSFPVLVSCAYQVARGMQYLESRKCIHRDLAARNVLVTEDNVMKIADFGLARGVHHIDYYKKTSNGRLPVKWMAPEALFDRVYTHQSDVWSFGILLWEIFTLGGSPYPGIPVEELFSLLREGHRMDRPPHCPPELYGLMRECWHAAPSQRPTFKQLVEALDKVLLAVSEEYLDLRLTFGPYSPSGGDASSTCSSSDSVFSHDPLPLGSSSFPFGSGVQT
Chain of AXL (P30530 26-894, species assumed): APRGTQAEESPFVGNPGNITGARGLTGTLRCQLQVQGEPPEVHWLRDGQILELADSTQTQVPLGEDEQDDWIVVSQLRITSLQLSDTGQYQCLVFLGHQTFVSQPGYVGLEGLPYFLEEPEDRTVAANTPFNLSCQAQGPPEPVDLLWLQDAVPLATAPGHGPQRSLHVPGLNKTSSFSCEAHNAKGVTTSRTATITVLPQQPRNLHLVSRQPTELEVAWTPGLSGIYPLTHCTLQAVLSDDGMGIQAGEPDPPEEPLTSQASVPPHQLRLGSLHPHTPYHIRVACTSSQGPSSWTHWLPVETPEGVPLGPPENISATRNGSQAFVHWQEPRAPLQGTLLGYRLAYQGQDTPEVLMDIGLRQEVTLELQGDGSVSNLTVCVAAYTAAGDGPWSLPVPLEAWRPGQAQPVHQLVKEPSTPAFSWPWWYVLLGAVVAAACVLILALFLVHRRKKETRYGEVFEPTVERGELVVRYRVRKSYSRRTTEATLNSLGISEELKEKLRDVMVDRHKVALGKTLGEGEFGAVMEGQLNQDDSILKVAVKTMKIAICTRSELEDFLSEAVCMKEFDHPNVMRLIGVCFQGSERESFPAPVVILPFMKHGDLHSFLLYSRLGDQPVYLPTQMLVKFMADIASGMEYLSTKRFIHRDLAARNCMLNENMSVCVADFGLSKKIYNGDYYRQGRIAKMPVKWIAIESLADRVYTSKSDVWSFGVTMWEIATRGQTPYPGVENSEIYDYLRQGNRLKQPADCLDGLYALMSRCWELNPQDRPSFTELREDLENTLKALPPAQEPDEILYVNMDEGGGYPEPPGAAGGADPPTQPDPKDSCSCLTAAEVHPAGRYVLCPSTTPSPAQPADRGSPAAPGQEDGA
Chain of ALK (Q9UM73 19-1620, species assumed): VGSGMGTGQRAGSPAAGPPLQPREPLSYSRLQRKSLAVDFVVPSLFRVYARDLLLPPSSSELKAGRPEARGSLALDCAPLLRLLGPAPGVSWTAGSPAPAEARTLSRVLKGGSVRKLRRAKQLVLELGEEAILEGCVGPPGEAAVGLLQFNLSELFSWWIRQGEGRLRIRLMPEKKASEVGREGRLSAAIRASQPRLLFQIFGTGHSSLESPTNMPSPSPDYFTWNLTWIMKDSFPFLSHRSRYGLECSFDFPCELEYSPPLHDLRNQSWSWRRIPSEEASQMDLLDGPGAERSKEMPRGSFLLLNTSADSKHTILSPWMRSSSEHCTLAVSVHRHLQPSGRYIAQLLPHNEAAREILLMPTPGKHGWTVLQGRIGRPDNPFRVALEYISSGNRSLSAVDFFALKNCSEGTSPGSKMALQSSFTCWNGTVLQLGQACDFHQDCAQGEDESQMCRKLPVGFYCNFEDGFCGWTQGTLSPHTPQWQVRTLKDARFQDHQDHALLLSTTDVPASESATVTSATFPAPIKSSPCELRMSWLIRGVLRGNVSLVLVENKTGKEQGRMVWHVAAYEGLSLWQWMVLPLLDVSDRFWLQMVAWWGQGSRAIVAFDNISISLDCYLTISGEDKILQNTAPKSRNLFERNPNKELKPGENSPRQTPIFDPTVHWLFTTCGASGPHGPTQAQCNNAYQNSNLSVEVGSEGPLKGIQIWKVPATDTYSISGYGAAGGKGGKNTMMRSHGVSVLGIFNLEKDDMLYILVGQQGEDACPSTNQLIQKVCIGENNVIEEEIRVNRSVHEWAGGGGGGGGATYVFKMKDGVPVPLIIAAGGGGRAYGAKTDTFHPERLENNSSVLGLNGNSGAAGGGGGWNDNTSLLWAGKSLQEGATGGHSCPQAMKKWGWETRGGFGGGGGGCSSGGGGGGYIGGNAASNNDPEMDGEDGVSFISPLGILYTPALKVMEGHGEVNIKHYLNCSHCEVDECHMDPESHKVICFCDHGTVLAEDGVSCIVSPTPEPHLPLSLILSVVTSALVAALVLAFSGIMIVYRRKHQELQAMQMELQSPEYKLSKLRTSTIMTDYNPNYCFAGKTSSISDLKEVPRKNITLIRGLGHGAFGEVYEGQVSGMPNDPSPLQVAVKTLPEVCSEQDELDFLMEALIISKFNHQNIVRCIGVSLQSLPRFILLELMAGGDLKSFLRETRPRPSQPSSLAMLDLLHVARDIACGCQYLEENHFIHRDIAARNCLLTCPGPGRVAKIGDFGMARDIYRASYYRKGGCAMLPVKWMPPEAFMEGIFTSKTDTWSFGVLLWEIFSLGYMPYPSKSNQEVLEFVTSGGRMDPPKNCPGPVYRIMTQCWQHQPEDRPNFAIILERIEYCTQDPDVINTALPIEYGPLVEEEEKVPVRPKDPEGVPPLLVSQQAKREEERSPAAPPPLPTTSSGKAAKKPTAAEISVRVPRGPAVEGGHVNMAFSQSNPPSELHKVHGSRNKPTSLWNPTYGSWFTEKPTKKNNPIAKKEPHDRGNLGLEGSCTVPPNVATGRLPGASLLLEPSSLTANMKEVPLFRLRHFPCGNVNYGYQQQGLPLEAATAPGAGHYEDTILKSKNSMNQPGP
Chain of Src (P12931 whole entry, looked up, species assumed): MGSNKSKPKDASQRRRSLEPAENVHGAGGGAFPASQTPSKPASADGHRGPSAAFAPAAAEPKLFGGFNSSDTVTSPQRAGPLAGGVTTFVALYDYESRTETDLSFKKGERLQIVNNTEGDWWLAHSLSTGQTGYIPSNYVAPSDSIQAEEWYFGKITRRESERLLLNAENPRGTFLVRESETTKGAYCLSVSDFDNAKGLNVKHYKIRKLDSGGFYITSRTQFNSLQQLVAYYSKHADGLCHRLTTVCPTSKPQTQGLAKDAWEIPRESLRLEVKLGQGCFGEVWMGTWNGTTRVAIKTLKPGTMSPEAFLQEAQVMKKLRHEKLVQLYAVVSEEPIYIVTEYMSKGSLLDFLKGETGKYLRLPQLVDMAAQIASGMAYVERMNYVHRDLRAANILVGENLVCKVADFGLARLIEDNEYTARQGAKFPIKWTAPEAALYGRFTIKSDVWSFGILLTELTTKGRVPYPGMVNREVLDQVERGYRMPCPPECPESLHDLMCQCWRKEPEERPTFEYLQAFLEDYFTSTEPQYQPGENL

Turning to `CCC(NC(=O)c1ccc(C2CC2)c(-c2ccc3nc(Nc4cnn(C5CC5)c4)ncc3c2)c1)c1cccc(C(F)(F)F)c1` (stereo not drawn) [Compound S18], the IC50 in assay [1], in [2], in [3], in assay [4], in assay [5] and in assay [6] was over 1000 nM each time. The IC50 in assay [7], in assay [8], in [9], in assay [10], in assay [11] and in assay [12] was over 1000 nM throughout. Besides, the IC50 in assay [13], in [14], in assay [15], in assay [16], in [17] and in [18] was over 1000 nM in each case. The half-maximal inhibitory concentration (IC50) was over 1000 nM in assay [19]; over 1000 nM in assay [20]; 3.7 ± 0.2 nM in assay [21]; over 1000 nM in assay [22]; over 1000 nM in assay [24]. Besides, the selectivity for kinases result in assay [23] is on record as “good selectivity”.
